Experimental data as given in US20240150377A1, “MODULATORS OF CYSTIC FIBROSIS TRANSMEMBRANE CONDUCTANCE REGULATOR” (VERTEX PHARMACEUTICALS INCORPORATED, priority 2020, published 2024).
Like-named read-outs stand apart in the source and are kept apart here.

How the values were obtained:
[1] = target: T1, CFTR (Homo sapiens, UniProt P13569, DEL508-508); assay: HBE2 assay: Ussing chamber assay of CFTR-mediated short-circuit currents; type: cell-based; settings: F508del/MF-HBE cells, with 44 nM potentiator, 18-24 hours, 20% human serum; for Emax: read-out: HBE2 Max activity (%)
T1 construct: endogenous in cells; host or cells: primary human bronchial epithelial cells from CF subjects (F508del/MF-HBE), differentiated at air-liquid interface
Description: Ussing Chamber Assay of CFTR-Mediated Short-Circuit Currents
After four days the apical media was removed, and the cells were grown at an air liquid interface for >14 days prior to use.
To isolate the CFTR-mediated short-circuit (ISC) current, F508del/MF-HBE grown on Costar® Snapwell™ cell culture inserts were mounted in an Ussing chamber and the transepithelial ISC was measured under voltage-clamp recording conditions (Vhold=0 mV) at 37° C. […] The CFTR-mediated ISC (μA/cm^2) for each condition was determined from the peak forskolin response to the steady-state current following inhibition.
Identification of Corrector Compounds
The activity of the CFTR corrector compounds on the CFTR-mediated ISC was determined in Ussing chamber studies as described above.

[2] = target: T1, CFTR; assay: HBE assay: Ussing chamber assay of CFTR-mediated short-circuit currents; type: cell-based; settings: for Emax: read-out: HBE Max activity (%); for activation at 10 µM: read-out: HBE Activity at 10 μM (%)
In short: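 CFTR-mediated Isc (μA/cm²) equals the peak response to apical 20 μM forskolin minus the residual after a 20 μM each BPO/GlyH-101/CFTR inhibitor 172 cocktail, recorded in Ussing chambers at Vhold 0 mV, 37 °C, pH 7.4, with 30 μM apical amiloride. Cells were F508del/MF HBE cultures preincubated 18-24 h with corrector (concentration range or 10 μM) plus 1 μM ivacaftor in 20% human serum.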

T1 sequence (P13569 with tags, fused parts or gaps DEL508-508): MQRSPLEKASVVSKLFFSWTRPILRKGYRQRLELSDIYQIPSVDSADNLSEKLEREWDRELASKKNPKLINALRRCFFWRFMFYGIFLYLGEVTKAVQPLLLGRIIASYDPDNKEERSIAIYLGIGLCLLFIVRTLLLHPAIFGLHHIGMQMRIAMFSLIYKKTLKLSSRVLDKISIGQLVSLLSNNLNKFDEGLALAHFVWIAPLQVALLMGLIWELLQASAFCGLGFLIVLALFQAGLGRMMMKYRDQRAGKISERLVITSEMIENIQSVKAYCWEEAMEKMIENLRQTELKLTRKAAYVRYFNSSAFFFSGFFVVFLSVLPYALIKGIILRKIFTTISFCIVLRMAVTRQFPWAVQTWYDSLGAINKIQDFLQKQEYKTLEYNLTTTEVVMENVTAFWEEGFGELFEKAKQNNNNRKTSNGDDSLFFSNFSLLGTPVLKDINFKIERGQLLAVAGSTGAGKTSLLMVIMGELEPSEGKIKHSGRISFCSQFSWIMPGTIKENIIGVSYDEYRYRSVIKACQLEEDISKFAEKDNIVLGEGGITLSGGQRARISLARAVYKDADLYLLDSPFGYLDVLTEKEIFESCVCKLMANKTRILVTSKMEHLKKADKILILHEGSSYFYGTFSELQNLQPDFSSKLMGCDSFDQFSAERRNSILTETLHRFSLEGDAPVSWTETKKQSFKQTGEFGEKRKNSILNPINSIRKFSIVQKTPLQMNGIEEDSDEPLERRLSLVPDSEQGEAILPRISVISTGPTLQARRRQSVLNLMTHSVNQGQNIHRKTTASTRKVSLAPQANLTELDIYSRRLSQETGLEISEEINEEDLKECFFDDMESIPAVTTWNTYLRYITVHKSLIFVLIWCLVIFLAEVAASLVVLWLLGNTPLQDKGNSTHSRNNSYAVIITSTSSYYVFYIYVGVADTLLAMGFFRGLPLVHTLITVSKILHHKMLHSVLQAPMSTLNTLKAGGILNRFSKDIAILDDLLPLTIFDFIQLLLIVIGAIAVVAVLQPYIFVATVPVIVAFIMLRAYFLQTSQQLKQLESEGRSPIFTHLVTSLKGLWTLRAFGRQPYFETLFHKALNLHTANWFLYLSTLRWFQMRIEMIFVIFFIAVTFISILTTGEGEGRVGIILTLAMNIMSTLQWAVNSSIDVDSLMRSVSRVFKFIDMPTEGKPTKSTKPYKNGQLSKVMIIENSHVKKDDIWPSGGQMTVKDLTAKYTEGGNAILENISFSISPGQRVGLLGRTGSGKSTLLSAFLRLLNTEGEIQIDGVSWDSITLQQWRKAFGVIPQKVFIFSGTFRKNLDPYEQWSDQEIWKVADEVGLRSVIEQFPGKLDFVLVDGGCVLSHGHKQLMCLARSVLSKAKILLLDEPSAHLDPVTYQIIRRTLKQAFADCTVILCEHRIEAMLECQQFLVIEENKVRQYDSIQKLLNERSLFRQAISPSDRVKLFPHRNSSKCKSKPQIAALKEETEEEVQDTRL

SMILES: Cc1cccc(C)c1-c1cc2nc(n1)NS(=N)(=O)c1cccc(c1)C(=O)N(Cc1ncc(N3CC(C)(C)C3)cn1)[C@H](CC(C)(C)C)CO2 (single isomer, unassigned) [Compound 1312]
- HBE2 Activity at 3 μM (%) ([1]; 3 μM): ++ (++ is 30-60%)

SMILES: Cc1cccc(C)c1-c1cc2nc(n1)NS(=N)(=O)c1cccc(c1)C(=O)N(Cc1ncc(N3CC(C)(C)C3)cn1)[C@H](CC(C)(C)C)CO2 (single isomer, unassigned) [Compound 1313]
- HBE2 Activity at 3 μM (%) ([1]; 3 μM): +++ (+++ is >60+)

SMILES: Cc1cccc(C)c1-c1cc2nc(n1)NS(=O)(=O)c1cccc(c1)C(=O)N(Cc1cncc(N3CC[C@@H]4CC[C@@H]43)n1)[C@H](CC(C)(C)C)CO2 (single isomer, unassigned) [Compound 1314]
- HBE2 Activity at 3 μM (%) ([1]; 3 μM): +++ (+++ is >60+)

SMILES: Cc1cccc(C)c1-c1cc2nc(n1)NS(=O)(=O)c1cccc(c1)C(=O)N(Cc1cncc(N3CCC[C@H]4CC[C@H]43)n1)[C@H](CC(C)(C)C)CO2 (single isomer, unassigned) [Compound 1315]
- HBE2 Activity at 3 μM (%) ([1]; 3 μM): +++ (+++ is >60+)
- EC50 [1]: < 1 µM
- Emax [1]: > 60%

SMILES: Cc1cccc(C)c1-c1cc2nc(n1)NS(=O)(=O)c1cccc(c1)C(=O)N(Cc1cncc(N3CCC[C@H]4CC[C@H]43)n1)[C@H](CC(C)(C)C)CO2 (single isomer, unassigned) [Compound 1316]
- HBE2 Activity at 3 μM (%) ([1]; 3 μM): +++ (+++ is >60+)

SMILES: Cc1cccc(C)c1-c1cc2nc(n1)NS(=O)(=O)c1cccc(c1)C(=O)N(Cc1cncc(N(C)C3CCC3)n1)[C@H](C1CC3(CCC3)C1)CO2 (single isomer, unassigned) [Compound 1320, 12-[[6-[Cyclobutyl(methyl)amino]pyrazin-2-yl]methyl]-6-(2,6-dimethylphenyl)-2,2-dioxo-11-spiro[3.3]heptan-2-yl-9-oxa-2λ^6-thia-3,5,12,19-tetrazatricyclo[12.3.1.14,8]nonadeca-1(18),4(19),5,7,14,16-hexaen-13-one]
- HBE2 Activity at 3 μM (%) ([1]; 3 μM): +++ (+++ is >60+)
- EC50 [1]: < 1 µM
- Emax [1]: > 60%

SMILES: Cc1cccc(C)c1-c1cc2nc(n1)NS(=O)(=O)c1cccc(c1)C(=O)N(Cc1cncc(N(C)C3CCC3)n1)[C@H](C1CC3(CCC3)C1)CO2 (single isomer, unassigned) [Compound 1321, 12-[[6-[cyclobutyl(methyl)amino]pyrazin-2-yl]methyl]-6-(2,6-dimethylphenyl)-2,2-dioxo-11-spiro[3.3]heptan-2-yl-9-oxa-2λ^6-thia-3,5,12,19-tetrazatricyclo[12.3.1.14,8]nonadeca-1(18),4(19),5,7,14,16-hexaen-13-one]
- HBE2 Activity at 3 μM (%) ([1]; 3 μM): ++ (++ is 30-60%)

SMILES: Cc1cccc(C)c1-c1cc2nc(n1)NS(=O)(=O)c1cccc(c1)C(=O)N(Cc1cncc(N(C)C3CCC3)n1)[C@]1(CCC(C)(C)C1)CO2 (single isomer, unassigned) [Compound 1325, 12-[[6-[cyclobutyl(methyl)amino]pyrazin-2-yl]methyl]-6-(2,6-dimethylphenyl)-1′,1′-dimethyl-2,2-dioxo-spiro[9-oxa-2λ^6-thia-3,5,12,19-tetrazatricyclo[12.3.1.14,8]nonadeca-1(18),4(19),5,7,14,16-hexaene-11,3′-cyclopentane]-13-one]
- HBE2 Activity at 3 μM (%) ([1]; 3 μM corrector): +++ (+++ is >60+)

SMILES: Cc1cccc(C)c1-c1cc2nc(n1)NS(=O)(=O)c1cccc(c1)C(=O)N(Cc1cccc(N3CCC[C@H]3C3CC3)n1)[C@H](CC(C)(C)C)CO2 [Compound 1497]
- EC50 ([2]; HBE EC50 (μM), HBE assay): < 1 µM
- Emax [2]: > 60%

SMILES: Cc1cccc(C)c1-c1cc2nc(n1)NS(=O)(=O)c1cccc(c1)C(=O)N(Cc1ncc(N3CC(F)C3)cn1)[C@H](CC(C)(C)C)CO2 [Compound 1498]
- activation at 10 µM ([2]; HBE assay, 10 μM): > 60%

SMILES: Cc1cccc(C)c1-c1cc2nc(n1)NS(=O)(=O)c1cccc(c1)C(=O)N(Cc1cncc(N3CCC[C@H]3C(C)C)n1)[C@H](CC1CC1)CO2 [Compound 1499]
- activation at 10 µM ([2]; HBE assay, 10 μM): > 60%
- EC50 ([2]; HBE assay, read-out: HBE EC50): < 1 µM
- Emax ([2]; HBE assay): > 60%

SMILES: Cc1cccc(C)c1-c1cc2nc(n1)NS(=O)(=O)c1cccc(c1)C(=O)N(Cc1ncc(N3CC(F)(F)C(F)(F)C3)cn1)[C@H](CC(C)(C)C)CO2 [Compound 1500]
- activation at 10 µM ([2]; HBE assay, 10 μM): > 60%

SMILES: Cc1cccc(C)c1-c1cc2nc(n1)NS(=O)(=O)c1cccc(c1)C(=O)N(Cc1cccc(N3CCC[C@H]3C3CC3)n1)[C@H](CC1CC1)CO2 [Compound 1501]
- activation at 10 µM ([2]; HBE assay, 10 μM): > 60%

SMILES: Cc1cccc(C)c1-c1cc2nc(n1)NS(=O)(=O)c1cccc(c1)C(=O)N(Cc1cncc(N3CCC[C@H]3C3CC3)n1)[C@H](CC1CC1)CO2 [Compound 1502]
- EC50 ([2]; HBE EC50 (μM), HBE assay): < 1 µM
- activation at 10 µM [2]: > 60%
- Emax [2]: > 60%

SMILES: Cc1cccc(C)c1-c1cc2nc(n1)NS(=O)(=O)c1cccc(c1)C(=O)N(Cc1ncc(N3CC(C)(F)C3)cn1)[C@H](CC(C)(C)C)CO2 [Compound 1503]
- activation at 10 µM ([2]; HBE assay, 10 μM): > 60%
- EC50 ([2]; HBE assay, read-out: HBE EC50): < 1 µM
- Emax ([2]; HBE assay): > 60%

SMILES: Cc1cccc(C)c1-c1cc2nc(n1)NS(=O)(=O)c1cccc(c1)C(=O)N(Cc1ncc(N3CCC4(CC4)C3)cn1)[C@H](CC(C)(C)C)CO2 [Compound 1504]
- activation at 10 µM ([2]; HBE assay, 10 μM): > 60%

SMILES: Cc1cccc(C)c1-c1cc2nc(n1)NS(=O)(=O)c1cccc(c1)C(=O)N(Cc1ncc(N3CC(C)(C)C3)cn1)[C@H](CC1CC1)CO2 [Compound 1505]
- activation at 10 µM ([2]; HBE assay, 10 μM): > 60%
- EC50 ([2]; HBE assay, read-out: HBE EC50): < 1 µM
- Emax ([2]; HBE assay): > 60%

SMILES: COCCN(c1cccc(CN2C(=O)c3cccc(c3)S(=O)(=O)Nc3nc(cc(-c4c(C)cccc4C)n3)OC[C@H]2CC(C)(C)F)n1)C(C)C [Compound 1508]
- activation at 10 µM ([2]; HBE assay, 10 μM): > 60%

SMILES: Cc1cccc(C)c1-c1cc2nc(n1)NS(=O)(=O)c1cccc(c1)C(=O)N(Cc1ncc(OC3CCC3)cn1)[C@H](CC(C)(C)F)CO2 [Compound 1509]
- activation at 10 µM ([2]; HBE assay, 10 μM): > 60%

SMILES: COC[C@@]1(C)CCCN1c1cccc(CN2C(=O)c3cccc(c3)S(=O)(=O)Nc3nc(cc(-c4c(C)cccc4C)n3)OC[C@H]2CC(C)(C)C)n1 [Compound 1510]
- activation at 10 µM ([2]; HBE assay, 10 μM): > 60%

SMILES: COC[C@]1(C)CCCN1c1cccc(CN2C(=O)c3cccc(c3)S(=O)(=O)Nc3nc(cc(-c4c(C)cccc4C)n3)OC[C@H]2CC(C)(C)C)n1 [Compound 1511]
- activation at 10 µM ([2]; HBE assay, 10 μM): > 60%

SMILES: CC(=O)Nc1cnc(CN2C(=O)c3cccc(c3)S(=O)(=O)Nc3nc(cc(-c4c(C)cccc4C)n3)OC[C@H]2CC(C)(C)C)nc1 [Compound 1513]
- activation at 10 µM ([2]; HBE assay, 10 μM): > 60%

SMILES: COC(=O)Nc1cnc(CN2C(=O)c3cccc(c3)S(=O)(=O)Nc3nc(cc(-c4c(C)cccc4C)n3)OC[C@H]2CC(C)(C)C)nc1 [Compound 1514]
- activation at 10 µM ([2]; HBE assay, 10 μM): > 60%

SMILES: Cc1cccc(C)c1-c1cc2nc(n1)NS(=O)(=O)c1cccc(c1)C(=O)N(Cc1ncc(NC(=O)OC(C)C)cn1)[C@H](CC(C)(C)C)CO2 [Compound 1515]
- activation at 10 µM ([2]; HBE assay, 10 μM): > 60%

SMILES: CC(=O)N(C)c1cnc(CN2C(=O)c3cccc(c3)S(=O)(=O)Nc3nc(cc(-c4c(C)cccc4C)n3)OC[C@H]2CC(C)(C)C)nc1 [Compound 1516]
- activation at 10 µM ([2]; HBE assay, 10 μM): > 60%

SMILES: CCCOc1cnc(CN2C(=O)c3cccc(c3)S(=O)(=O)Nc3nc(cc(-c4c(C)cccc4C)n3)OC[C@H]2CC(C)(C)C)nc1 [Compound 1521]
- activation at 10 µM ([2]; HBE assay, 10 μM): > 60%

SMILES: CCOc1cnc(CN2C(=O)c3cccc(c3)S(=O)(=O)Nc3nc(cc(-c4c(C)cccc4C)n3)OC[C@H]2CC2(C)CC2)nc1 [Compound 1524]
- activation at 10 µM ([2]; HBE assay, 10 μM): > 60%

SMILES: Cc1cccc(C)c1-c1cc2nc(n1)NS(=O)(=O)c1cccc(c1)C(=O)N(Cc1ncc(N3CC(C)(C)C3)cn1)[C@H](CCC(C)(C)C)CO2 [Compound 1525]
- activation at 10 µM ([2]; HBE assay, 10 μM): > 60%

SMILES: COCC(COC)N(C)c1cncc(CN2C(=O)c3cccc(c3)S(=O)(=O)Nc3nc(cc(-c4c(C)cccc4C)n3)OC[C@H]2CC(C)(C)C)n1 [Compound 1531]
- activation at 10 µM ([2]; HBE assay, 10 μM): > 60%

SMILES: Cc1cccc(C)c1-c1cc2nc(n1)NS(=O)(=O)c1cccc(c1)C(=O)N(Cc1cncc(N3CCCC[C@H]3C3CC3)n1)[C@H](CC(C)(C)C)CO2 [Compound 1532]
- activation at 10 µM [2]: > 60%

SMILES: Cc1cccc(C)c1-c1cc2nc(n1)NS(=O)(=O)c1cccc(c1)C(=O)N(Cc1cncc(N3CCCC[C@@H]3C3CC3)n1)[C@H](CC(C)(C)C)CO2 [Compound 1533]
- activation at 10 µM [2]: > 60%

SMILES: Cc1cccc(C)c1-c1cc2nc(n1)NS(=O)(=O)c1cccc(c1)C(=O)N(Cc1cncc(N3CCC[C@@H]3C3CCOCC3)n1)[C@H](CC(C)(C)C)CO2 [Compound 1534]
- activation at 10 µM ([2]; HBE assay, 10 μM): > 60%

SMILES: COC[C@H]1CCCCN1c1cncc(CN2C(=O)c3cccc(c3)S(=O)(=O)Nc3nc(cc(-c4c(C)cccc4C)n3)OC[C@H]2CC(C)(C)C)n1 [Compound 1538]
- activation at 10 µM [2]: > 60%

SMILES: Cc1cccc(C)c1-c1cc2nc(n1)NS(=O)(=O)c1cccc(c1)C(=O)N(Cc1cncc(N3CC[C@@H]4COC[C@@H]43)n1)[C@H](CC(C)(C)C)CO2 [Compound 1540]
- activation at 10 µM ([2]; HBE assay, 10 μM): > 60%

SMILES: Cc1cccc(C)c1-c1cc2nc(n1)NS(=O)(=O)c1cccc(c1)C(=O)N(Cc1cncc(N3CC[C@@H]4CCC[C@@H]43)n1)[C@H](CC(C)(C)C)CO2 [Compound 1542]
- activation at 10 µM ([2]; HBE assay, 10 μM): > 60%
